Source: patent US20240391926A1, “SPIROINDOLINONE COMPOUNDS AS Kv1.3 POTASSIUM SHAKER CHANNEL BLOCKERS” (D.E. Shaw Research, LLC, priority 2021, published 2024)
pIC50: −log10 of the molar value.

Experiments:
hERG channel = target: T1, hERG channel (Homo sapiens, UniProt Q12809); experiment: hERG electrophysiology, automated whole-cell patch clamp (Patchliner) in CHO-K1 cells stably expressing hERG; type: cell-based; conditions: 30 nM-100 μM
T1 construct: expressed in transfected cells
Description: This assay is used to evaluate the disclosed compounds' inhibition activities against the hERG channel.
CHO-K1 cells stably expressing hERG were grown in Ham's F-12 Medium with glutamine containing 10% heat-inactivated FBS, 1% penicillin/streptomycin, hygromycin (100 μg/ml) and G418 (100 μg/ml). Cells were grown in culture flasks at 37° C. in a 5% CO2-humidified incubator.
The cells were bathed in an extracellular solution containing 140 mM NaCl, 4 mM KCl, 2 mM CaCl2), 1 mM MgCl2, 5 mM Glucose, 10 mM HEPES; pH adjusted to 7.4 with NaOH; 295-305 mOsm. The internal solution contained 50 mM KCl, 10 mM NaCl, 60 mM KF, 20 mM EGTA, 10 mM HEPES; pH adjusted to 7.2 with KOH; 285 mOsm. All compounds were dissolved in DMSO at 30 mM. Compound stock solutions were freshly diluted with external solution to concentrations of 30 nM, 100 nM, 300 nM, 1 μM, 3 μM, 10 μM, 30 μM and 100 μM. The highest content of DMSO (0.3%) was present in 100 μM.
The voltage protocol (see Table B) was designed to simulate voltage changes during a cardiac action potential with a 300 ms depolarization to +20 mV (analogous to the plateau phase of the cardiac action potential), a repolarization for 300 ms to −50 mV (inducing a tail current) and a final step to the holding potential of −80 mV. The pulse frequency was 0.3 Hz. Control (compound-free) and compound pulse trains for each compound concentration applied contained 70 pulses.
Whole-cell current recordings and compound application were enabled by means of an automated patch clamp platform Patchliner (Nanion). EPC 10 patch clamp amplifier (HEKA) along with Patchmaster software (HEKA Elektronik Dr. Schulze GmbH) was used for data acquisition. Data were sampled at 10 kHz without filtering. Increasing compound concentrations were applied consecutively to the same cell without washouts in between.
AUC and PEAK values were obtained with Patchmaster (HEKA Elektronik Dr. Schulze GmbH). To determine IC50 the last single pulse in the pulse train corresponding to a given compound concentration was used. Obtained AUC and PEAK values in the presence of compound were normalized to control values in the absence of compound. Using Origin (OridinLab), IC50 was derived from data fit to Hill equation: Icompound/Icontrol=(100−A)/(1+([compound]/IC50)nH)+A, where IC50 is the concentration at which current inhibition is half-maximal, [compound] is the applied compound concentration, A is the fraction of current that is not blocked and nH is the Hill coefficient.

Kv1.3 potassium channel = target: T2, Kv1.3 potassium channel (Homo sapiens, UniProt P22001); experiment: Kv1.3 potassium channel blocker activity, automated whole-cell patch clamp (Patchliner) in CHO-K1 cells stably expressing Kv1.3; type: cell-based; conditions: 30 nM-100 μM
T2 construct: expressed in transfected cells
Summary of the method: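 Whole-cell automated patch clamp in CHO-K1 cells, pH 7.4 external/7.2 internal; 100 ms steps from −90 to +40 mV at 0.1 Hz, 20-pulse trains. Cumulative 30 nM–100 μM on one cell, ≤10 s per concentration; last-pulse current normalized to control, IC50 from Hill fit.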

T2 sequence (P22001 whole entry): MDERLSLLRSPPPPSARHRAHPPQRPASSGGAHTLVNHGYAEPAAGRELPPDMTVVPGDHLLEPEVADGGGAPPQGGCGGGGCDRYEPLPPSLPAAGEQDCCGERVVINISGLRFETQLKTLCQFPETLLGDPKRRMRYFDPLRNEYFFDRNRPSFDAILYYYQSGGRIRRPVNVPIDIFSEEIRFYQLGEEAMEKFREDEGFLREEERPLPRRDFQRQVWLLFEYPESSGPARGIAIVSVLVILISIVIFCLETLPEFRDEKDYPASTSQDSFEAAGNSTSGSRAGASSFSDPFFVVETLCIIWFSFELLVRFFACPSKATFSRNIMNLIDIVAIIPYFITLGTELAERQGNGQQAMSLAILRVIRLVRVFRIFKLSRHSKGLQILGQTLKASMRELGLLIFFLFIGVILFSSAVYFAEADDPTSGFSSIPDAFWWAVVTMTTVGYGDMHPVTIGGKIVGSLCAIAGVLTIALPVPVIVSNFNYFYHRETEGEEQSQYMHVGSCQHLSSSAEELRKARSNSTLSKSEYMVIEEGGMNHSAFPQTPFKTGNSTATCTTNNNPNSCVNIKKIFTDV
T1 sequence (Q12809 whole entry): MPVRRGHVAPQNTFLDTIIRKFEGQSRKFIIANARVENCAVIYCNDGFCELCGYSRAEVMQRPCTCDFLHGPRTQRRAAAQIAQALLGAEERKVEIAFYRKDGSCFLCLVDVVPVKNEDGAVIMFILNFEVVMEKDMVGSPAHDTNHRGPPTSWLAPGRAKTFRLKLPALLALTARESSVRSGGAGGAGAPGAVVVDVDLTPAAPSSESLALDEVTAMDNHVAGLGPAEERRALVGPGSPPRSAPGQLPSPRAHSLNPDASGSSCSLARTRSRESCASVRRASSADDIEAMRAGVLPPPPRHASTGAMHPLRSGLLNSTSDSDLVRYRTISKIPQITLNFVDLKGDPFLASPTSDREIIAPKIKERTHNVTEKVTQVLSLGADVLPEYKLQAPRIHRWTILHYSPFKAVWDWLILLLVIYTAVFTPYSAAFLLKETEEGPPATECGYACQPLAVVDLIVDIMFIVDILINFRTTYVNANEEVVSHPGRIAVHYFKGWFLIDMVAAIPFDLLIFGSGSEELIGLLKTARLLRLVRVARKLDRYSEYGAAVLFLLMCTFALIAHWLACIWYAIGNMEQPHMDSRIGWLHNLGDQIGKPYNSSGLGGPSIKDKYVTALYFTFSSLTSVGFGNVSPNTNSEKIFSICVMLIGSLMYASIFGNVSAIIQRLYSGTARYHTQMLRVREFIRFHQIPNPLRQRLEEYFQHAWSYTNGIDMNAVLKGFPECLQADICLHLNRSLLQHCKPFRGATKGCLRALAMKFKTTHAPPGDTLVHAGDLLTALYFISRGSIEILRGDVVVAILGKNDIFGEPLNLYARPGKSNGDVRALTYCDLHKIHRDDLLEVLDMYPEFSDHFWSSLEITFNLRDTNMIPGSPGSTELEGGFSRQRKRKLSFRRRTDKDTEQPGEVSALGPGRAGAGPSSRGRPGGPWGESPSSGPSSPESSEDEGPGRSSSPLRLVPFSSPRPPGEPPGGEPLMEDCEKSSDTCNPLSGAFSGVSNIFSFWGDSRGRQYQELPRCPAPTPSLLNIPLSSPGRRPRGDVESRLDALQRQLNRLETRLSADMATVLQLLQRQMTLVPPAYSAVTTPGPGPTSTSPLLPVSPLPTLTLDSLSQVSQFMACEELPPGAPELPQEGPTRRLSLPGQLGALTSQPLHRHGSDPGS

| pIC50 (Kv1.3 potassium channel) | SMILES | pIC50 (hERG channel) |
| --- | --- | --- |
| > 6.52 | C[C@H]1NCC[C@@H]1C(=O)N1CC[C@]2(C1)C(=O)Nc1cc(Cl)c(Cl)cc12 (relative stereo) [Compound 40, (S)-5,6-dichloro-1′-((2S,3R)-rel-2-methylpyrrolidine-3-carbonyl)spiro[indoline-3,3′-pyrrolidin]-2-one isomer 2] | < 4.00 |
| > 6.00 | O=C([C@H]1CC[C@](O)(CO)C1)N1CC[C@]2(C1)C(=O)Nc1cc(Cl)c(Cl)cc12 (relative stereo) [Compound 95, (S)-5,6-dichloro-1′-((1R,3S)-rel-3-hydroxy-3-(hydroxymethyl)cyclopentane-1-carbonyl)spiro[indoline-3,3′-pyrrolidin]-2-one isomer 1] | < 4.00 |
| > 6.00 | O=C([C@H]1CC[C@@](O)(CO)C1)N1CC[C@]2(C1)C(=O)Nc1cc(Cl)c(Cl)cc12 (relative stereo) [Compound 97, (S)-5,6-dichloro-1′-((1R,3R)-rel-3-hydroxy-3-(hydroxymethyl)cyclopentane-1-carbonyl)spiro[indoline-3,3′-pyrrolidin]-2-one isomer 1] | < 4.00 |
| > 6.52 | O=C([C@H]1CNC[C@H]1O)N1CC[C@]2(C1)C(=O)Nc1cc(Cl)c(Cl)cc12 (single isomer, unassigned) [Compound 2] | < 4.00 |
| > 7.00 | O=C([C@@H]1CNC[C@H]1O)N1CC[C@]2(C1)C(=O)Nc1cc(Cl)c(Cl)cc12 (single isomer, unassigned) [Compound 3] | < 4.00 |
| > 6.52 | O=C(N1CC[C@]2(C1)C(=O)Nc1cc(Cl)c(Cl)cc12)C1(F)CCNC1 (single isomer, unassigned; isomer 1) [Compound 29] | < 5.52 |
| > 6.52 | O=C(C1CCN(CCO)C1)N1CC[C@]2(C1)C(=O)Nc1cc(Cl)c(Cl)cc12 (single isomer, unassigned; isomer 1) [Compound 37] | < 4.00 |
| > 6.52 | C[C@@H]1NCC[C@H]1C(=O)N1CC[C@]2(C1)C(=O)Nc1cc(Cl)c(Cl)cc12 (single isomer, unassigned; isomer 1) [Compound 39] | < 4.00 |
| > 6.00 | O=C([C@H]1CC[C@H](O)C1)N1CC[C@]2(C1)C(=O)Nc1cc(Cl)c(Cl)cc12 (single isomer, unassigned; isomer 1) [Compound 63] | < 4.52 |
| > 6.52 | O=C(C1C[C@@H](O)[C@H](O)C1)N1CC[C@]2(C1)C(=O)Nc1cc(Cl)c(Cl)cc12 (single isomer, unassigned; isomer 1) [Compound 105] | < 4.00 |
| > 6.52 | O=C([C@@H]1CCN(CCO)C1)N1CC[C@]2(C1)C(=O)Nc1cc(Cl)c(Cl)cc12 (single isomer, unassigned; isomer 2) [Compound 38] | < 4.00 |
| > 6.52 | O=C([C@@H]1CC[C@@H](O)[C@H](O)C1)N1CC[C@]2(C1)C(=O)Nc1cc(Cl)c(Cl)cc12 (single isomer, unassigned; isomer 2) [Compound 104] | < 4.00 |
| > 6.00 | NCC(=O)N1CC[C@]2(C1)C(=O)Nc1cc(Cl)c(Cl)cc12 [Compound 5, (S)-5,6-dichloro-1′-glycylspiro[indoline-3,3′-pyrrolidin]-2-one] | < 4.52 |
| > 6.00 | O=C(CO)N1CC[C@]2(C1)C(=O)Nc1cc(Cl)c(Cl)cc12 [Compound 6, (S)-5,6-dichloro-1′-(2-hydroxyacetyl)spiro[indoline-3,3′-pyrrolidin]-2-one] | < 4.00 |
| > 6.00 | O=C(C1CNC1)N1CC[C@]2(C1)C(=O)Nc1cc(Cl)c(Cl)cc12 [Compound 8, (S)-1′-(azetidine-3-carbonyl)-5,6-dichlorospiro[indoline-3,3′-pyrrolidin]-2-one] | < 4.00 |
| > 6.00 | NCCC(=O)N1CC[C@]2(C1)C(=O)Nc1cc(Cl)c(Cl)cc12 [Compound 9, (S)-1′-(3-aminopropanoyl)-5,6-dichlorospiro[indoline-3,3′-pyrrolidin]-2-one] | < 4.00 |

| pIC50 (Kv1.3 potassium channel) | SMILES | pIC50 (hERG channel) |
| --- | --- | --- |
| > 6.00 | C[C@@H](O)C(=O)N1CC[C@]2(C1)C(=O)Nc1cc(Cl)c(Cl)cc12 [Compound 13, (S)-5,6-dichloro-1′-((R)-2-hydroxypropanoyl)spiro[indoline-3,3′-pyrrolidin]-2-one] | < 4.00 |
| > 6.52 | O=C([C@@H]1CCNC1)N1CC[C@]2(C1)C(=O)Nc1cc(Cl)c(Cl)cc12 [Compound 14, (S)-5,6-dichloro-1′-((R)-pyrrolidine-3-carbonyl)spiro[indoline-3,3′-pyrrolidin]-2-one] | < 4.00 |
| > 6.00 | O=C([C@H]1CCNC1)N1CC[C@]2(C1)C(=O)Nc1cc(Cl)c(Cl)cc12 [Compound 15, (S)-5,6-dichloro-1′-((S)-pyrrolidine-3-carbonyl)spiro[indoline-3,3′-pyrrolidin]-2-one] | < 4.00 |
| > 6.52 | O=C([C@@H]1CCCNC1)N1CC[C@]2(C1)C(=O)Nc1cc(Cl)c(Cl)cc12 [Compound 17, (S)-5,6-dichloro-1′-((R)-piperidine-3-carbonyl)spiro[indoline-3,3′-pyrrolidin]-2-one] | < 4.00 |
| > 6.00 | O=C(C1CCNCC1)N1CC[C@]2(C1)C(=O)Nc1cc(Cl)c(Cl)cc12 [Compound 21, (S)-5,6-dichloro-1′-(piperidine-4-carbonyl)spiro[indoline-3,3′-pyrrolidin]-2-one] | < 4.00 |
| > 6.00 | Nc1cnc(N2CC[C@]3(C2)C(=O)Nc2cc(Cl)c(Cl)cc23)cn1 [Compound 144, (3S)-1′-(5-aminopyrazin-2-yl)-5,6-dichloro-1H-spiro[indole-3,3′-pyrrolidin]-2-one] |  |
| > 6.00 | O=C1Nc2cc(Cl)c(Cl)cc2[C@]12CCN(c1c[nH]c(=O)cn1)C2 [Compound 145, (S)-5,6-dichloro-1′-(5-oxo-4,5-dihydropyrazin-2-yl)spiro[indoline-3,3′-pyrrolidin]-2-one] |  |
| > 5.52 | O=C1Nc2cc(Cl)c(Cl)cc2[C@]12CCN(c1cn[nH]n1)C2 [Compound 146, (S)-5,6-dichloro-1′-(1H-1,2,3-triazol-4-yl)spiro[indoline-3,3′-pyrrolidin]-2-one] |  |
| > 6.00 | COCC(=O)N1CC[C@]2(C1)C(=O)Nc1cc(Cl)c(Cl)cc12 [Compound 147, (S)-5,6-dichloro-1′-(2-methoxyacetyl)spiro[indoline-3,3′-pyrrolidin]-2-one] |  |
| > 5.52 | Nc1cc(N2CC[C@]3(C2)C(=O)Nc2cc(Cl)c(Cl)cc23)ncn1 [Compound 148, (S)-1′-(6-aminopyrimidin-4-yl)-5,6-dichlorospiro[indoline-3,3′-pyrrolidin]-2-one] |  |
| > 5.52 | O=C1Nc2cc(Cl)c(Cl)cc2[C@]12CCN(c1cnccn1)C2 [Compound 149, (S)-5,6-dichloro-1′-(pyrazin-2-yl)spiro[indoline-3,3′-pyrrolidin]-2-one] |  |
| > 6.00 | CC(=O)N1CC[C@]2(C1)C(=O)Nc1cc(Cl)c(Cl)cc12 [Compound 152, (S)-1′-acetyl-5,6-dichlorospiro[indoline-3,3′-pyrrolidin]-2-one] |  |
| > 6.00 | O=C(CCO)N1CC[C@]2(C1)C(=O)Nc1cc(Cl)c(Cl)cc12 [Compound 156, (S)-5,6-dichloro-1′-(3-hydroxypropanoyl)spiro[indoline-3,3′-pyrrolidin]-2-one] |  |
| > 6.00 | O=C([C@@H](O)CO)N1CC[C@]2(C1)C(=O)Nc1cc(Cl)c(Cl)cc12 [Compound 157, (S)-5,6-dichloro-1′-((S)-2,3-dihydroxypropanoyl)spiro[indoline-3,3′-pyrrolidin]-2-one] |  |
| > 5.52 | O=C(C1CC1O)N1CC[C@]2(C1)C(=O)Nc1cc(Cl)c(Cl)cc12 (stereo partly drawn) [Compound 158, (3S)-5,6-dichloro-1′-(2-hydroxycyclopropane-1-carbonyl)spiro[indoline-3,3′-pyrrolidin]-2-one] |  |
| > 5.52 | O=C([C@H](O)CO)N1CC[C@]2(C1)C(=O)Nc1cc(Cl)c(Cl)cc12 [Compound 159, (S)-5,6-dichloro-1′-((R)-2,3-dihydroxypropanoyl)spiro[indoline-3,3′-pyrrolidin]-2-one] |  |
